The record followed here is US20040006236A1, “Diaminopropionic acid derivatives” (priority 1999, published 2004).

Structures are written as SMILES.

For one experiment, the target named is T1, ICAM-1 binding to immobilized Mac-1 (Homo sapiens, UniProt P05107+P11215).
T1 construct: made in house; host or cells: transfected 293 cells (Mac-1)
T1 sequence (P05107 23-769, other chains not shown): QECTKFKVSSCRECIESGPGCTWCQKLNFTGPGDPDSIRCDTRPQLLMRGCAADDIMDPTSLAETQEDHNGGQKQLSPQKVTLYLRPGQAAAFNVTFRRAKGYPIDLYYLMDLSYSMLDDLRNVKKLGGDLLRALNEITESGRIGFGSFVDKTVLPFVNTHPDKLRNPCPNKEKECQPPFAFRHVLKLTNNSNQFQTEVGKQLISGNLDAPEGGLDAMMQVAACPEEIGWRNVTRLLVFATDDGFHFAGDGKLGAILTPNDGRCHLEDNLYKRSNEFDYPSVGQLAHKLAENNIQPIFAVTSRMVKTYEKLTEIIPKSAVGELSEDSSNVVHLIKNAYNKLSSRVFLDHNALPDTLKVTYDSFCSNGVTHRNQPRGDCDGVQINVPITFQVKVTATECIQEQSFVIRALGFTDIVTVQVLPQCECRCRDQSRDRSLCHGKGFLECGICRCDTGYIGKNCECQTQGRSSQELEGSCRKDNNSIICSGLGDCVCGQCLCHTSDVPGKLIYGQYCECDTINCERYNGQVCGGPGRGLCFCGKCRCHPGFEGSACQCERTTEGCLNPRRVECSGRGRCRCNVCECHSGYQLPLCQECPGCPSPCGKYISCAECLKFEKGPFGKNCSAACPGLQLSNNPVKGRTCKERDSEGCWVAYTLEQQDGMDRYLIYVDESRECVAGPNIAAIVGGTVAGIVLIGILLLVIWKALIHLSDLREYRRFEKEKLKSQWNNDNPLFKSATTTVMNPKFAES
Nature of the experiment: Mac-1/ICAM-1 screening assay (solid-phase ELISA). To be noted: Mac-1/ICAM-1 Protein-Protein Assay IC50. How it is done: (b) Mac-1/ICAM-1 screening test: Mac-1/ICAM-1 antagonist activity, defined as the ability to compete with ICAM-1 binding to immobilized Mac-1, was quantitated by a solid-phase ELISA.
(§1) Membrane-bound Mac-1 derived from transfected 293 cells was coated onto 96-well microtiter plates (50 μL/well, 3 μg/mL Mac-1 in 20 mM Hepes, pH 7.2/0.14 M NaCl/1 mM MnCl2) overnight at 4° C. The plates were blocked with 100 μL/well of 0.5% BSA in 20 mM Hepes, pH 7.2/0.14 M NaCl/1 mM MnCl2 at 37° C. for 1 h and washed 3 times (120 μL each) with Binding Buffer (20 mM Hepes, pH 7.2/0.14 M NaCl/1 mM MnCl2/0.05% Tween 20). Test compounds were dissolved in 100% DMSO and diluted 1:50 in Binding Buffer plus 10% DMSO. A series of 1:4 dilutions were performed for each compound (concentration range, 0.12 nM-20 μM). Each dilution (25 μL/well) was added to the plates, followed by 25 μL/well of 5 dICAM-Ig (40 μg/mL in Binding Buffer). The plates were shaken vigorously for 1 min (room temperature), followed by gentle agitation for 2 h (37° C.), and washed with Binding Buffer (3 times, 120 μL each). HRP-conjugated goat anti-human IgG(Fc-specific) antibody (0.125 μg/mL in Binding Buffer plus 0.05% BSA) was added to each well (50 μL/well), followed by incubation for 1 h at 37° C. The plates were then washed 3 times with Binding Buffer (120 μL each). TMB solution (100 μL/well) was added to each well for color development for 10 min. The reaction was stopped with 1 M H3PO4 (100 μL/well) and the plates were read at 450 nm. The inhibitory activities of test compounds were determined by the IC50s.
as §1, with “Mac-1/ICAM-1 antagonist activity, defined as the ability to compete with ICAM-1 binding to immobilized Mac-1, was quantitated by a solid-phase ELISA. Membrane-bound” for “Membrane-bound”, “5dICAM-Ig” for “5 dICAM-Ig”, “nm.” for “nm. The inhibitory activities of test compounds were determined by the IC50s.”
For the compound `O=C(NCc1cccc(O)c1)c1ccc(C(=O)N[C@@H](CNC(=O)c2cc([N+](=O)[O-])cc([N+](=O)[O-])c2)C(=O)O)c(Cl)c1` [Example 129], the IC50 came out at 37 nM.

On to `O=C(Cc1ccc([N+](=O)[O-])cc1[N+](=O)[O-])NC[C@H](NC(=O)c1ccc(C(=O)NCc2cccc(O)c2)cc1Cl)C(=O)O` [Example 83], for which the IC50 was determined as 58 nM.

The experiment is the same for the next values; noted with them: read-out: Mac-1/ICAM-1 Protein-Protein Assay IC50.
Regarding `CC(=O)NC[C@H](NC(=O)c1ccc(C(=O)NCc2cccc(O)c2)cc1Cl)C(=O)O` [Example 193], the IC50 worked out at 49 nM.

Regarding `O=C(NCc1cccc(O)c1)c1ccc(C(=O)N[C@@H](CNC(=O)c2cnc3ccccc3c2)C(=O)O)c(Cl)c1` [Example 183], the IC50 was 222 nM.

Turning to `O=C(NC[C@H](NC(=O)c1c(F)cccc1Cl)C(=O)O)c1ccc2[nH]nnc2c1` [Example 226], the IC50 worked out at 273 nM.

For the compound `O=C(O)c1cccc(C(=O)NC[C@H](NC(=O)c2ccc(C(=O)NCc3cccc(O)c3)cc2Cl)C(=O)O)c1` [Example 297], the IC50 was determined as 81 nM.

As to `COc1c(C(=O)NC[C@H](NC(=O)c2ccc(C(=O)NCc3cccc(O)c3)cc2Cl)C(=O)O)csc1Cl` [Example 258, N-[2-chloro-4-[[[(3-hydroxyphenyl)methyl]amino]carbonyl]benzoyl]-3-(5-chloro-4-methoxythiophene-3-carbonyl)amino-L-alanine], the IC50 stood at 26 nM.

For the compound `O=C(NCc1cccc2[nH]ccc12)c1ccc(C(=O)N[C@@H](CNC(=O)c2cccs2)C(=O)O)c(Br)c1` [Example 329], the IC50 was 25 nM.

With `O=C(CC1c2ccccc2-c2ccccc21)NC[C@H](NC(=O)c1ccc(C(=O)NCc2cccc(O)c2)cc1Cl)C(=O)O` [Example 88], the IC50 is 273 nM.

For the compound `N[C@@H](Cc1ccccc1)C(=O)NC[C@H](NC(=O)c1ccc(C(=O)NCc2cccc(O)c2)cc1Cl)C(=O)O` [Example 199], the IC50 came to 36 nM.

Regarding `O=C(Cc1cccs1)NC[C@H](NC(=O)c1ccc(C(=O)NCc2cccc(O)c2)cc1Cl)C(=O)O` [Example 84], the IC50 was determined as 60 nM.

In the case of `NC1(C(=O)NC[C@H](NC(=O)c2ccc(C(=O)NCc3cccc(O)c3)cc2Cl)C(=O)O)CCCC1` [Example 263], the IC50 amounted to 27 nM.

Take `Nc1cccn(CC(=O)NC[C@H](NC(=O)c2ccc(C(=O)NCc3cccc(O)c3)cc2Cl)C(=O)O)c1=O` [Example 266]: the IC50 stood at 306 nM.

On to `O=C(Cc1ccc2ccccc2c1)NC[C@H](NC(=O)c1ccc(C(=O)NCc2cccc(O)c2)cc1Cl)C(=O)O` [Example 87], for which the IC50 was determined as 87 nM.

Regarding `O=C(NCc1cccc(O)c1)c1ccc(C(=O)N[C@@H](CNC(=O)c2cc(=O)c3ccccc3o2)C(=O)O)c(Cl)c1` [Example 187], the IC50 amounted to 56 nM.

Turning to `O=C(CCc1cccc(O)c1)c1ccc(C(=O)N[C@@H](CNC(=O)c2cccs2)C(=O)O)c(Cl)c1` [Example 319, N-[2-chloro-4-[1-oxo-3-(3-hydroxyphenyl)propyl]benzoyl]-3-(thiophene-2-carbonyl)amino-L-alanine], the IC50 amounted to 43 nM.

With `O=C(CCc1ccccc1)NC[C@H](NC(=O)c1ccc(C(=O)NCc2cccc(O)c2)cc1Cl)C(=O)O` [Example 94], the IC50 amounted to 42 nM.

With `CC(C)(C)C(=O)NC[C@H](NC(=O)c1ccc(C(=O)NCc2cccc(O)c2)cc1Cl)C(=O)O` [Example 92], the IC50 was found to be 48 nM.

For the compound `O=C(CSc1ncccn1)NC[C@H](NC(=O)c1ccc(C(=O)NCc2cccc(O)c2)cc1Cl)C(=O)O` [Example 91], the IC50 is 174 nM.

In the case of `O=C(O)CCCC(=O)NC[C@H](NC(=O)c1ccc(C(=O)NCc2cccc(O)c2)cc1Cl)C(=O)O` [Example 298], the IC50 stood at 298 nM.

Regarding `Cc1ccc(C(=O)NC[C@H](NC(=O)c2ccc(C(=O)NCc3cccc4[nH]ccc34)cc2Cl)C(=O)O)s1` [Example 317], the IC50 turned out to be 36 nM.

`CC(C)C(=O)NC[C@H](NC(=O)c1ccc(C(=O)NCc2cccc(O)c2)cc1Cl)C(=O)O` [Example 194]: the IC50 came to 36 nM.

Consider `COc1ccc(CC(=O)NC[C@H](NC(=O)c2ccc(C(=O)NCc3cccc(O)c3)cc2Cl)C(=O)O)cc1` [Example 80], for which the IC50 stood at 134 nM.
